{
  "source": "patent US20230051589A1",
  "about": "“COMPOUNDS AND COMPOSITIONS FOR TREATING CONDITIONS ASSOCIATED WITH NLRP ACTIVITY” (Novartis AG, priority 2018, published 2023)",
  "system": "IL-1β production in PMA-differentiated THP-1 cells",
  "experiment": "IL-1β production in PMA-differentiated THP-1 cells stimulated with gramicidin (hTHP-1 assay, 2% fetal bovine serum; Procedures 1-3)",
  "format": "cell-based, human",
  "summary_of_the_method": "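PMA-primed THP-1 cells (20 ng/ml PMA, 16-18 h) in RPMI with 2% FBS were pre-incubated with compounds for 1 h, from 100 μM downward in 3-fold steps (0.37% DMSO final), then stimulated with 5 μM gramicidin for 2 h. IL-1β in the supernatant was quantified by HTRF.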",
  "key": {"[1]": {"settings": "hTHP-1 assay containing 2% fetal bovine serum, Table B2, class symbols, read-out: IC50"}, "[2]": {"settings": "Homo sapiens, THP-1, hTHP-1 assay containing 2% fetal bovine serum, Table B2, class symbols, read-out: IC50"}, "[3]": {"settings": "Table B3, hTHP-1 assay containing 2% fetal bovine serum, gramicidin stimulation, IL-1β readout, read-out: hTHP-1 IC50"}},
  "note": "Read-outs that look alike come from different tables or passages of the source.",
  "data": [
    {"smiles": "CC(C)(O)c1cnc(S(N)(=O)=NC(=O)Nc2c3c(cc4c2CCC4O)CCC3)s1", "note": "(single isomer, unassigned) [Example 657, (R,R) or (R,S)-N′-((1-hydroxy-1,2,3,5,6,7-hexahydro-5-indacen-4-yl)carbamoyl)-5-(2-hydroxypropan-2-yl)thiazole-2-sulfonimidamide]", "values": [
      {"measurement": "IC50", "setting": "[1]", "value": "1000 to 5000", "unit": "nM"}
    ]},
    {"smiles": "CNCc1csc(S(N)(=O)=NC(=O)Nc2c3c(cc4c2CCC4)CCC3)c1", "note": "(stereo not drawn) [compound 672, N′-((1,2,3,5,6,7-hexahydro-s-indacen-4-yl)carbamoyl)-4-((methylamino)methyl)thiophene-2-sulfonimidamide]", "values": [
      {"measurement": "IC50", "setting": "[2]", "value": "40 to 200", "unit": "nM"}
    ]},
    {"smiles": "NS(=O)(=NC(=O)Nc1c2c(cc3c1CCC3)CCC2)c1ccc(C2CCCN2)cc1", "note": "(stereo not drawn) [Example 447, N′-((1,2,3,5,6,7-hexahydro-s-indacen-4-yl)carbamoyl)-4-(pyrrolidin-2-yl)benzenesulfonimidamide]", "values": [
      {"measurement": "IC50", "setting": "[1]", "value": "1000 to 5000", "unit": "nM"}
    ]},
    {"smiles": "CC(=O)NC[C@@](C)(O)c1ncc(S(N)(=O)=NC(=O)Nc2c3c(cc4c2CCC4)CCC3)s1", "note": "(stereo partly drawn) [Example 675, N-((2R)-2-(5-(N′-((1,2,3,5,6,7-hexahydro-s-indacen-4-yl)carbamoyl)sulfamidimidoyl)thiazol-2-yl)-2-hydroxypropyl)acetamide]", "values": [
      {"measurement": "IC50", "setting": "[2]", "value": "40 to 200", "unit": "nM"}
    ]},
    {"smiles": "NS(=O)(=NC(=O)Nc1c2c(cc3c1CCC3)CCC2)c1ccc([C@@H]2CCCN2)s1", "note": "(single isomer, unassigned) [Example 821, (R) or (S) -N′-((1,2,3,5,6,7-hexahydro-s-indacen-4-yl)carbamoyl)-5-((S)-pyrrolidin-2-yl)thiophene-2-sulfonimidamide]", "values": [
      {"measurement": "IC50", "setting": "[3]", "value": "200 to 1000", "unit": "nM"}
    ]},
    {"smiles": "NS(=O)(=NC(=O)Nc1c2c(cc3c1CCC3)CCC2)c1cc2c(s1)CCOC2", "note": "(single isomer, unassigned) [Example 789, (R) or (S)-N′-((1,2,3,5,6,7-hexahydro-5-indacen-4-yl)carbamoyl)-6,7-dihydro-4H-thieno[3,2-c]pyran-2-sulfonimidamide]", "values": [
      {"measurement": "IC50", "setting": "[3]", "value": "200 to 1000", "unit": "nM"}
    ]},
    {"smiles": "CNCc1csc(S(N)(=O)=NC(=O)Nc2c3c(cc4c2CC4)CCC3)c1F", "note": "(single isomer, unassigned) [Example 870, (R) or (S) -3-fluoro-4-((methylamino)methyl)-N′-((2,4,5,6-tetrahydro-1H-cyclobuta[f]inden-3-yl)carbamoyl)thiophene-2-sulfonimidamide]", "values": [
      {"measurement": "IC50", "setting": "[3]", "value": "40 to 200", "unit": "nM"}
    ]},
    {"smiles": "C[C@](O)(CO)c1ncc(S(N)(=O)=NC(=O)Nc2c3c(cc4c2CC4)CCC3)s1", "note": "(single isomer, unassigned) [Example 815, (R) or (S)-2-((S)-1,2-dihydroxypropan-2-yl)-N′-((2,4,5,6-tetrahydro-1H-cyclobuta[f]inden-3-yl)carbamoyl)thiazole-5-sulfonimidamide]", "values": [
      {"measurement": "IC50", "setting": "[3]", "value": "8 to 40", "unit": "nM"}
    ]},
    {"smiles": "COCCNCc1ccc([S@](N)(=O)=NC(=O)Nc2c3c(cc4c2CCC4)CCC3)cc1", "note": "[Example 701, (R)-N′-((1,2,3,5,6,7-hexahydro-s-indacen-4-yl)carbamoyl)-4-(((2-methoxyethyl)amino)-methyl)benzenesulfonimidamide]", "values": [
      {"measurement": "IC50", "setting": "[2]", "value": "1000 to 5000", "unit": "nM"}
    ]},
    {"smiles": "CNCc1ccc(S(N)(=O)=NC(=O)Nc2c3c(cc4c2CC4)CCC3)cc1", "note": "(single isomer, unassigned) [Example 536, (S) or (R)-4-((methylamino)methyl)-N′-((2,4,5,6-tetrahydro-1H-cyclobuta[f]inden-3-yl)carbamoyl) benzenesulfonimidamide]", "values": [
      {"measurement": "IC50", "setting": "[1]", "value": "5000 to 30000", "unit": "nM"}
    ]},
    {"smiles": "CC(C)(O)c1cc(S(N)(=O)=NC(=O)Nc2c3c(cc4c2CCC4)CCC3)sc1-c1ccccc1", "note": "(single isomer, unassigned) [Example 553, (S) or (R)-N′-((1,2,3,5,6,7-hexahydro-s-indacen-4-yl)carbamoyl)-(4-2-hydroxypropan-2-yl)-5-phenylthiophene-2-sulfonimidamide]", "values": [
      {"measurement": "IC50", "setting": "[1]", "value": "5000 to 30000", "unit": "nM"}
    ]},
    {"smiles": "C[C@@](O)(CO)c1ncc(S(N)(=O)=NC(=O)Nc2c3c(cc4c2CC4)CCC3)s1", "note": "(stereo partly drawn) [Compound 919c]", "values": [
      {"measurement": "IC50", "setting": "[2]", "value": "8 to 40", "unit": "nM"}
    ]}
  ]
}
